In ChEMBL document CHEMBL1136313, “Biological evaluation of sphingomyelin analogues as inhibitors of sphingomyelinase” (Bioorg Med Chem Lett, 2003):
pIC50: −log10 of the molar value.

What follows are compounds tested against T1, Sphingomyelin phosphodiesterase 2 (Rattus norvegicus, UniProt Q9ET64) (assay: Inhibitory activity against N-SMase (neutral magnesium- dependent-sphingomyelinase) using rat brain microsomes).
T1 sequence (Q9ET64 whole entry): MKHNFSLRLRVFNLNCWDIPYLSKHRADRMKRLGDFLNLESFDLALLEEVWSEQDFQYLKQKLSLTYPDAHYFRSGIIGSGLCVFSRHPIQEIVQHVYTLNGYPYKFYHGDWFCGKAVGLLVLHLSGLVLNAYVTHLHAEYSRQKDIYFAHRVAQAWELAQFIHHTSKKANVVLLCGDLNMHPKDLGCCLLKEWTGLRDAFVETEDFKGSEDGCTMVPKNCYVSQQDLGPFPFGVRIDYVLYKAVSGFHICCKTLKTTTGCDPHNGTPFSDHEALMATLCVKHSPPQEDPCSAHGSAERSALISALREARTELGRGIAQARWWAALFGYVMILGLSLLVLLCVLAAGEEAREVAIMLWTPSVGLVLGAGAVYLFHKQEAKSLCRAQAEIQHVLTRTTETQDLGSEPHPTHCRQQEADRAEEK

| Compound | pIC50 |
| --- | --- |
| CCCCCCCCCCCC[C@@H](O)[C@H](COC(=O)NCc1ccncc1)NC(=O)C(C)(C)C | < 4.00 |
| CCCCCCCCCCCCC/C=C/[C@@H](O)[C@H](CNC(=S)NCc1ccncc1)NC(=O)C(C)(C)C | 4.35 |
| CCCCCCCCCCCCC/C=C/[C@@H](O)[C@H](CNC(=O)NCc1ccncc1)NC(=O)C(C)(C)C | 5.54 |
| CCCCCCCCCCCCC/C=C/[C@@H](O)[C@H](CNC(=O)OCc1ccncc1)NC(=O)C(C)(C)C | 4.24 |

Second part, the compound after the results:

| pIC50 | Compound |
| --- | --- |
| 5.18 | CCCCCCCCCCCCCCC/C=C/[C@@H](O)[C@H](COC(=O)NCc1ccncc1)NC(=O)C(C)(C)C |
| 5.17 | CCCCCCCCCC/C=C/[C@@H](O)[C@H](COC(=O)NCc1ccncc1)NC(=O)C(C)(C)C |
| 4.68 | CCCCCCCCCCCCC/C=C/[C@@H](O)[C@H](COC(=O)N(O)Cc1ccncc1)NC(=O)C(C)(C)C |
| < 4.00 | CCCCCCCCCCCCCCC[C@@H](O)[C@H](COC(=O)NCc1ccncc1)NC(=O)C(C)(C)C |
| 5.55 | CCCCCCCCCCCCC/C=C/[C@@H](O)[C@H](COC(=O)NCc1ccncc1)NC(=O)C(C)(C)C |
